This note sets out measurements from patent US9062078B2, “Substituted 7-azabicyles and their use as orexin receptor modulators” (priority 2013, dated 2015).

A word on the Ki: it is a measure of affinity in units of concentration, obtained from inhibition or displacement.

One experiment deals with rat orexin 1 receptor (Rattus norvegicus, UniProt P56718). The experiment can be described thus: Rat orexin 1 receptor radioligand binding (competitive, [3H]-SB674042, HEK293 cell preparations). The settings on record: rat orexin 1 receptor, [3H]-SB674042 competition binding; read-out: rOX1 Ki (nm).
Regarding `CCOc1ccc(C)nc1C(=O)N1C2CCC1C(Nc1ncc(C(F)(F)F)cn1)C2` (single isomer, unassigned) [Example 224, (±)-(3-ethoxy-6-methylpyridin-2-yl)(2-(5-(trifluoromethyl)pyrimidin-2-yl)amino)-7-azabicyclo[2.2.1]heptan-7-yl)methanone], the inhibitory constant (Ki) is 2.5 µM.
As for `Cc1cnc(C(=O)N2C3CCC2C(COc2ccccn2)C3)c(-n2nccn2)c1` (racemic) [Example 71, (±)-(5-methyl-3-(2H-1,2,3-triazol-2-yl)pyridin-2-yl)(2-((pyridin-2-yloxy)methyl)-7-azabicyclo[2.2.1]heptan-7-yl)methanone], the Ki turned out to be 1.2 µM.
`CCOc1nccc(Br)c1C(=O)N1C2CCC1C(COc1ccccn1)C2` (racemic) [Example 161, (±)-(4-bromo-2-ethoxypyridin-3-yl)(2-((pyridin-2-yloxy)methyl)-7-azabicyclo[2.2.1]heptan-7-yl)methanone]: the Ki worked out at 0.478 µM.

Another experiment deals with human orexin 2 receptor (Homo sapiens (Human), UniProt O43614). Briefly: Human orexin 2 receptor radioligand binding (competitive, [3H]-EMPA, HEK293 cell preparations). The settings on record: hOX2 Ki (nm).
Chain of human orexin 2 receptor (O43614 whole entry): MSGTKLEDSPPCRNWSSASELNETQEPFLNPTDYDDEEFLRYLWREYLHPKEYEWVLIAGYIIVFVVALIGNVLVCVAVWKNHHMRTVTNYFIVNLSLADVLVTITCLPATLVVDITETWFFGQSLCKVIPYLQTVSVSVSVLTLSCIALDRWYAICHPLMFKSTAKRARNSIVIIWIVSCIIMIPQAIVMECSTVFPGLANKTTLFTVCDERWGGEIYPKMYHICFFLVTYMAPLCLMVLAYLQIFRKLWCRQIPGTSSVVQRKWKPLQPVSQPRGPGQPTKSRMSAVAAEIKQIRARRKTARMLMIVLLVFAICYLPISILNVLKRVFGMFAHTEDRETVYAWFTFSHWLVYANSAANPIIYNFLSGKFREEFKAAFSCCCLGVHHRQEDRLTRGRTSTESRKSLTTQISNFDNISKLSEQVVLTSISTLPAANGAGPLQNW
Turning to `CCOc1nccc(Br)c1C(=O)N1C2CCC1C(COc1ccccn1)C2` (racemic) [Example 161, (±)-(4-bromo-2-ethoxypyridin-3-yl)(2-((pyridin-2-yloxy)methyl)-7-azabicyclo[2.2.1]heptan-7-yl)methanone], the affinity corresponds to a Ki of 1.45 µM.
In the case of `CCOc1ccccc1C(=O)N1C2CCC1C(COc1nc(C)cc(C)n1)C2` (racemic) [Example 42, (±)-(2-(((4,6-dimethylpyrimidin-2-yl)oxy)methyl)-7-azabicyclo[2.2.1]heptan-7-yl)(2-ethoxyphenyl)methanone], the Ki was determined as 0.253 µM.
The same measure, in the same setting: next, `Cc1ccc(-n2nccn2)c(C(=O)N2C3CCC2C(COc2ccccn2)C3)n1` (racemic) [Example 4, (±)-(6-methyl-3-(2H-1,2,3-triazol-2-yl)pyridin-2-yl)(2-((pyridin-2-yloxy)methyl)-7-azabicyclo[2.2.1]heptan-7-yl)methanone]: 0.927 µM; `Cc1ccc(-n2nccn2)c(C(=O)N2C3CCC2C(COc2ccccn2)C3)n1` [Example 6, (6-methyl-3-(2H-1,2,3-triazol-2-yl)pyridin-2-yl)((1S,2R,4R)-2-((pyridin-2-yloxy)methyl)-7-azabicyclo[2.2.1]heptan-7-yl)methanone]: 0.428 µM; `Cc1ccc(-n2nccn2)c(C(=O)N2[C@@H]3CC[C@H]2[C@H](COc2ccccn2)C3)n1` [Example 5A, (6-methyl-3-(2H-1,2,3-triazol-2-yl)pyridin-2-yl)((1S,2R,4R)-2-((pyridin-2-yloxy)methyl)-7-azabicyclo[2.2.1]heptan-7-yl)methanone]: 0.428 µM.

The same experiment, now with this note: human orexin 2 receptor, [3H]-EMPA competition binding; read-out: hOX2 Ki (nm).
In the case of `CCOc1ccc(C)nc1C(=O)N1C2CCC1C(Nc1ncc(C(F)(F)F)cn1)C2` (single isomer, unassigned) [Example 224, (±)-(3-ethoxy-6-methylpyridin-2-yl)(2-(5-(trifluoromethyl)pyrimidin-2-yl)amino)-7-azabicyclo[2.2.1]heptan-7-yl)methanone], the Ki is 7.4 µM.
As to `Cc1cnc(C(=O)N2C3CCC2C(COc2ccccn2)C3)c(-n2nccn2)c1` (racemic) [Example 71, (±)-(5-methyl-3-(2H-1,2,3-triazol-2-yl)pyridin-2-yl)(2-((pyridin-2-yloxy)methyl)-7-azabicyclo[2.2.1]heptan-7-yl)methanone], the Ki is 3.7 µM.
Consider `CCOc1ccc2ccccc2c1C(=O)N1[C@@H]2CC[C@H]1[C@H](Nc1cnc(C(F)(F)F)cn1)C2` [Example 239, (2-ethoxynaphthalen-1-yl)((1S,2R,4R)-2-((5-(trifluoromethyl)pyrazin-2-yl)amino)-7-azabicyclo[2.2.1]heptan-7-yl)methanone], for which the Ki was 0.49 µM.
Regarding `Cc1cccc(C(=O)N2[C@@H]3CC[C@H]2[C@H](Nc2cnc(C(F)(F)F)cn2)C3)c1-c1ncccn1` [Example 273, (3-methyl-2-(pyrimidin-2-yl)phenyl)((1S,2R,4R)-2-((5-(trifluoromethyl)pyrazin-2-yl)amino)-7-azabicyclo[2.2.1]heptan-7-yl)methanone], the Ki stood at 0.328 µM.
The same measure, in the same setting: next, `COc1cccc(-c2ncccn2)c1C(=O)N1[C@@H]2CC[C@H]1[C@H](Nc1cnc(C(F)(F)F)cn1)C2` [Example 289, (2-methoxy-6-(pyrimidin-2-yl)phenyl)((1S,2R,4R)-2-((5-(trifluoromethyl)pyrazin-2-yl)amino)-7-azabicyclo[2.2.1]heptan-7-yl)methanone]: 0.173 µM; `CCOc1ncc2ccccc2c1C(=O)N1[C@@H]2CC[C@H]1[C@H](Nc1cnc(C(F)(F)F)cn1)C2` [Example 246, (3-ethoxyisoquinolin-4-yl)((1S,2R,4R)-2-((5-(trifluoromethyl)pyrazin-2-yl)amino)-7-azabicyclo[2.2.1]heptan-7-yl)methanone]: 1.02 µM; `O=C(c1cc(F)ccc1-c1ncccn1)N1[C@@H]2CC[C@H]1[C@H](COc1ccccn1)C2` [Example 1, (5-fluoro-2-(pyrimidin-2-yl)phenyl)((1S,2R,4R)-2-((pyridin-2-yloxy)methyl)-7-azabicyclo[2.2.1]heptan-7-yl)methanone]: 0.276 µM.
Consider `COc1c(F)cccc1C(=O)N1C2CCC1C(COc1ccc(F)cn1)C2` (racemic) [Example 107, (±)-((3-fluoro-2-methoxyphenyl)(2-(((5-fluoropyridin-2-yl)oxy)methyl)-7-azabicyclo[2.2.1]heptan-7-yl)methanone], for which the Ki is 2.2 µM.
Still for that read-out and setting: to `Cc1cccc(C(=O)N2[C@@H]3CC[C@H]2[C@H](Nc2ncc(C(F)(F)F)cn2)C3)c1-c1ncco1` [Example 283, (3-methyl-2-(oxazol-2-yl)phenyl)((1S,2R,4R)-2-((5-(trifluoromethyl)pyrimidin-2-yl)amino)-7-azabicyclo[2.2.1]heptan-7-yl)methanone] belongs 0.417 µM; to `COc1c(F)cccc1C(=O)N1C2CCC1C(COc1ccc(F)cn1)C2` (racemic) [Example 173, (±)-(3-fluoro-2-methoxyphenyl)(2-(((5-fluoropyridin-2-yl)oxy)methyl)-7-azabicyclo[2.2.1]heptan-7-yl)methanone], 3 µM; to `Cc1ccc(-n2nccn2)c(C(=O)N2C3CCC2C(COc2ccc(F)cn2)C3)c1` (racemic) [Example 9, (±)-(2-(((5-fluoropyridin-2-yl)oxy)methyl)-7-azabicyclo[2.2.1]heptan-7-yl)(5-methyl-2-(2H-1,2,3-triazol-2-yl)phenyl)methanone], 0.057 µM.
The same measure, in the same setting: to `Cc1ccc(-n2nccn2)c(C(=O)N2[C@@H]3CC[C@H]2[C@H](COc2ccc(F)cn2)C3)c1` [Example 10A, ((1S,2R,4R)-2-(((5-fluoropyridin-2-yl)oxy)methyl)-7-azabicyclo[2.2.1]heptan-7-yl)(5-methyl-2-(2H-1,2,3-triazol-2-yl)phenyl)methanone] belongs 0.032 µM; to `Cc1cccc(C(=O)N2[C@@H]3CC[C@H]2[C@H](Nc2ccc(C(F)(F)F)cn2)C3)c1-n1nccn1` [Example 295, (3-methyl-2-(2H-1,2,3-triazol-2-yl)phenyl)((1S,2R,4R)-2-((5-(trifluoromethyl)pyridin-2-yl)amino)-7-azabicyclo[2.2.1]heptan-7-yl)methanone], 0.257 µM.
With `O=C(c1cccc(F)c1-n1nccn1)N1[C@@H]2CC[C@H]1[C@H](Nc1cnc(C(F)(F)F)cn1)C2` [Example 252, (3-fluoro-2-(2H-1,2,3-triazol-2-yl)phenyl)((1S,2R,4R)-2-((5-(trifluoromethyl)pyrazin-2-yl)amino)-7-azabicyclo[2.2.1]heptan-7-yl)methanone], the Ki worked out at 1.23 µM.
Still for that read-out and setting: next, `O=C(c1cccc(F)c1-c1cnccn1)N1[C@@H]2CC[C@H]1[C@H](Nc1cnc(C(F)(F)F)cn1)C2` [Example 265, (3-fluoro-2-(pyrazin-2-yl)phenyl)-((1S,2R,4R)-2-((5-(trifluoromethyl)pyrazin-2-yl)amino)-7-azabicyclo[2.2.1]heptan-7-yl)methanone]: 0.188 µM; `Cc1cccc(C(=O)N2[C@@H]3CC[C@H]2[C@H](Nc2ccc(C(F)(F)F)cn2)C3)c1-c1ncco1` [Example 296, (3-methyl-2-(oxazol-2-yl)phenyl)((1S,2R,4R)-2-((5-(trifluoromethyl)pyridin-2-yl)amino)-7-azabicyclo[2.2.1]heptan-7-yl)methanone]: 0.114 µM; `O=C(c1cccc(F)c1-n1nccn1)N1[C@@H]2CC[C@H]1[C@H](Nc1ccc(C(F)(F)F)cn1)C2` [Example 294, (3-fluoro-2-(2H-1,2,3-triazol-2-yl)phenyl)((1S,2R,4R)-2-((5-(trifluoromethyl)pyridin-2-yl)amino)-7-azabicyclo[2.2.1]heptan-7-yl)methanone]: 1.2 µM.
The same measure, in the same setting: to `Cc1cccc(C(=O)N2[C@@H]3CC[C@H]2[C@H](Nc2ncc(C(F)(F)F)cn2)C3)c1-c1ccccn1` [Example 293, (3-methyl-2-(pyridin-2-yl)phenyl)((1S,2R,4R)-2-((5-(trifluoromethyl)pyrimidin-2-yl)amino)-7-azabicyclo[2.2.1]heptan-7-yl)methanone] belongs 1.1 µM; to `Cc1cccc(C(=O)N2[C@@H]3CC[C@H]2[C@H](Nc2ncc(C(F)(F)F)cn2)C3)c1-c1ncccn1` [Example 281, (3-methyl-2-(pyrimidin-2-yl)phenyl)((1S,2R,4R)-2-((5-(trifluoromethyl)pyrimidin-2-yl)amino)-7-azabicyclo[2.2.1]heptan-7-yl)methanone], 1.2 µM; to `CCOc1ccc2cccnc2c1C(=O)N1[C@@H]2CC[C@H]1[C@H](Nc1cnc(C(F)(F)F)cn1)C2` [Example 291, (7-ethoxyquinolin-8-yl)((1S,2R,4R)-2-((5-(trifluoromethyl)pyrazin-2-yl)amino)-7-azabicyclo[2.2.1]heptan-7-yl)methanone], 0.425 µM.
Still for that read-out and setting: next, `O=C(c1c(F)cccc1-c1ncccn1)N1[C@@H]2CC[C@H]1[C@H](Nc1cnc(C(F)(F)F)cn1)C2` [Example 290, (2-fluoro-6-(pyrimidin-2-yl)phenyl)((1S,2R,4R)-2-((5-(trifluoromethyl)pyrazin-2-yl)amino)-7-azabicyclo[2.2.1]heptan-7-yl)methanone]: 0.558 µM; `O=C(c1cc(F)ccc1-n1nccn1)N1[C@@H]2CC[C@H]1[C@H](Nc1cnc(C(F)(F)F)cn1)C2` [Example 256, (5-fluoro-2-(2H-1,2,3-triazol-2-yl)phenyl)((1S,2R,4R)-2-((5-(trifluoromethyl)pyrazin-2-yl)amino)-7-azabicyclo[2.2.1]heptan-7-yl)methanone]: 1.1 µM.

Staying with this experiment, now noted: read-out: hOX2 Ki (nm).
Consider `O=C(c1ccccc1-n1nccn1)N1C2CCC1C(Nc1cnc(C(F)(F)F)cn1)C2` (single isomer, unassigned) [Example 183a], for which the Ki is above 10 µM.
Turning to `Cc1ccc(-n2nccn2)c(C(=O)N2[C@H]3CC[C@@H]2[C@@H](COc2ccccn2)C3)n1` [Example 5B, (6-methyl-3-(2H-1,2,3-triazol-2-yl)pyridin-2-yl)((1R,2S,4S)-2-((pyridin-2-yloxy)methyl)-7-azabicyclo[2.2.1]heptan-7-yl)methanone], the Ki was above 10 µM.
